Residue numbers refer to the chain shown, from its start. Like-named read-outs stand apart in the source and are kept apart here. *1 amine or outer side, *2 acyl side, *3 side chain or, on linkers, in order; H or OH if unused. Where a SMILES comes first, the peptide text is derived from it. γGlu = O=C(O)[CH](CCC(=O)[*:2])N[*:1]
Experiments:
human CaSR (wild type) = molecular target: T1, human CaSR (wild type) (Homo sapiens, UniProt P41180); test: Calcium mobilization assay, wild-type CaSR in PEAKrapid cells; format: cell-based; conditions: WT CaSR; for EC50: PEAKrapid cells, 1 mM CaCl2 in assay buffer, mean ± s.e.m., n = 3; for Response in calcium mobilization assay: in words
T1 construct: expressed in transfected cells; host or cells: PEAKrapid cells (ATCC), pcDNA 3.1, transient transfection
T1 sequence (P41180 20-1078): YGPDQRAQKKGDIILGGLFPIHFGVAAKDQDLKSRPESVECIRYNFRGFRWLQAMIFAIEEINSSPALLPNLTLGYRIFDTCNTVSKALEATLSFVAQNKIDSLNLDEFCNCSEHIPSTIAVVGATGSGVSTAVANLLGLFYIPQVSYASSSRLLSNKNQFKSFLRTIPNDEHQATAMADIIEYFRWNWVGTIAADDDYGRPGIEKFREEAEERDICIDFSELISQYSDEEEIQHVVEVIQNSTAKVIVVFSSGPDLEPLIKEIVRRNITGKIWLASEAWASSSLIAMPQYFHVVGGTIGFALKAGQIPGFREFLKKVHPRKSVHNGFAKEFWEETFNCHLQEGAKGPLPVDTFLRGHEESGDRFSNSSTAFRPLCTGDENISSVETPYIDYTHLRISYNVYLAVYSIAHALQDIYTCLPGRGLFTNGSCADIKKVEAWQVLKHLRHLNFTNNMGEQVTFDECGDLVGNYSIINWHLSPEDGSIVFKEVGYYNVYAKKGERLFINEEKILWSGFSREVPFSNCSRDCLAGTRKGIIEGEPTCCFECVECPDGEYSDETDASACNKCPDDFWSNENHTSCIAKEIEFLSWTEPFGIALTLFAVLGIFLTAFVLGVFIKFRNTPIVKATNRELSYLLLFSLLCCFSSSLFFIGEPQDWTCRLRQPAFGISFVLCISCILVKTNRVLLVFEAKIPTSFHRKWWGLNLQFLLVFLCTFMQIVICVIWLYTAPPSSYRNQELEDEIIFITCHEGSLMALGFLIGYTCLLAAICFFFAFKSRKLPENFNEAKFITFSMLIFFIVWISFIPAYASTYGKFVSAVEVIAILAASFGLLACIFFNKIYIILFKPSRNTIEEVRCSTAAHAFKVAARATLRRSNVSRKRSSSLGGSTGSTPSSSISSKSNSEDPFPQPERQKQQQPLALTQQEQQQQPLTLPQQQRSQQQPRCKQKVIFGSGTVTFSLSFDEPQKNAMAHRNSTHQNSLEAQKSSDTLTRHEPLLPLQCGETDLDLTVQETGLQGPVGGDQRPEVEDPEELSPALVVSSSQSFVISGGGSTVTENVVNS
Experimental: (§1) The CaSR receptor responsiveness was assessed by using PEAK^rapid cells (ATCC, Manassas, VA, USA) transiently transfected with the receptor DNA by the method reported by Kitajima et al.[6]. Briefly, human CaSR or its mutant cDNA with a signal sequence (MAFYSCCWVLLALTWHTSA) followed by FLAG-tag (DYKDDDDK) were inserted into pcDNA 3.1 expression vectors in Opti-MEM I medium (Thermo Fisher Scientific), mixed with FuGENE 6 (Roche), and poured onto PEAK^rapid cells grown at a submaximal concentration. After culturing for 24 h in 96-well plates, the cells were incubated with 5 µM Calcium-5 solution (Calcium-5 assay kit, Molecular Devices) for 45–60 min, and measurements were performed using a plate reader (FDSS/µCELL, Hamamatsu Photonics, Shizuoka, Japan) and its associated software. The activation of CaSR expressed in cells increases the intracellular Ca^2+ concentration, which is measured using a Ca^2+-sensitive dye. The binding of Ca^2+ to the Ca^2+-sensitive dye increases dye fluorescence, with excitation at 485 nm and emission at 525 nm. Test compounds were dissolved and administered in the assay buffer (146 mM NaCl, 1 mM MgSO4, 20 mM HEPES, 1 mM CaCl2, 2.5 mM probenecid, and 1.39 mM glucose, pH 7.4). Transiently transfected cells were challenged with compounds and compared with the vehicle alone and/or mock-transfected cells. The concentration dependence of the fluorescence intensity (influx of Ca^2+) was analyzed using the plate reader at 1 s intervals for 180 s. For the dose–response curve calculations, peak fluorescence responses after the addition of compounds were corrected for, normalized to the background fluorescence (ΔF/F = –F − F0)/F0), and baseline noise was subtracted. Dose–response curves were calculated by non-linear regression using GraphPad PRISM 8.0.

human CaSR N102F mutant = molecular target: T2, human CaSR N102F mutant (Homo sapiens, UniProt P41180, N102F); test: Calcium mobilization assay, CaSR N102F mutant; format: cell-based; conditions: for Response in calcium mobilization assay: in words, compared with wild type; for Emax: read-out: Emax (% of wild-type values)
T2 construct: (N); expressed in transfected cells; host or cells: PEAKrapid cells (ATCC), pcDNA 3.1, transient transfection
T2 sequence (P41180 20-1078 N102F): T1 sequence (P41180 20-1078) with N83F
Experimental: as §1

[1] = N102F mutant, mean ± s.e.m., n = 3, read-out: EC50

EC50 (human CaSR (wild type)) [µM] | Response in calcium mobilization assay (human CaSR (wild type)) | Response in calcium mobilization assay (human CaSR N102F mutant; N102F mutant) | EC50 (human CaSR N102F mutant; [1]) [µM] | Emax (human CaSR N102F mutant; N102F mutant) [%] | Emax (% of wild-type values) (human CaSR N102F mutant; N102F mutant) | Structure (SMILES) | EC50 of N102F mutant relative to wild-type EC50 (human CaSR N102F mutant; 6.52 / 0.18, N102F vs wild type) | EC50 (human CaSR N102F mutant; N102F mutant, read-out: EC50 of the N102F mutant) [µM] | Emax (human CaSR N102F mutant) [%]
3900 ± 1100 | weak response | more active than the wild type | 2160 ± 400 | 132 |  | N[C@@H](Cc1ccc(O)cc1)C(=O)O [L-Tyr, L-tyrosine] |  |  | 
190 ± 400 |  |  | 2750 ± 210 |  | 87.8 % of WT | [Ca+2].[Cl-].[Cl-] [CaCl2] |  |  | 
10.71 ± 0.1 | weak response | more active than the wild type | 4.48 ± 0.2 |  | 194.8 % of WT | CC(C)[C@H](NC(=O)CC[C@H](N)C(=O)O)C(=O)O [γ-EV, γ-glutamyl-valine] |  |  | 

Structure (SMILES) | EC50 (human CaSR (wild type)) [µM] | Response in calcium mobilization assay (human CaSR (wild type)) | Response in calcium mobilization assay (human CaSR N102F mutant; N102F mutant) | EC50 (human CaSR N102F mutant; [1]) [µM] | Emax (human CaSR N102F mutant; N102F mutant) [%] | Emax (% of wild-type values) (human CaSR N102F mutant; N102F mutant) | EC50 of N102F mutant relative to wild-type EC50 (human CaSR N102F mutant; 6.52 / 0.18, N102F vs wild type) | EC50 (human CaSR N102F mutant; N102F mutant, read-out: EC50 of the N102F mutant) [µM] | Emax (human CaSR N102F mutant) [%]
CC(C)C(NC(=O)CCC(N)C(=O)O)C(=O)NCC(=O)O (stereo not drawn) [γ-EVG, γ-glutamyl-valyl-glycine] (γGlu-Val-Gly-OH; configuration not given here) | 0.18 ± 0.1 |  |  |  |  |  | approximately 36.2 fold | 6.52 ± 0.1 | 95.7

From article PMC11785791, “Cryo-EM structure of the calcium-sensing receptor complexed with the kokumi substance γ-glutamyl-valyl-glycine” (Scientific Reports, 2025)
